Consider 15 compounds from patent publication US20230242530A1, “8-(AZETIDIN-1-YL)-[1,2,4]TRIAZOLO[1,5-A]PYRIDINYL COMPOUNDS, COMPOSITIONS AND METHODS OF USE THEREOF” (Genentech, Inc., priority 2016, published 2023).

For assay [1], the target named is T1, isolated recombinant JAK1 kinase domain (Homo sapiens, UniProt P23458).
T1 construct: isolated recombinant JAK1 and JAK2 kinase domain
The assay is described as follows: JAK enzyme assay, JAK1 kinase domain (Caliper LabChip). It is filed as biochemical. As to conditions: 1.5 nM JAK1, ATP 25 μM, Morrison tight binding model. Here is the method:
(§1) JAK Enzyme Assays were Carried Out as Follows:
(§2) The activity of the isolated recombinant JAK1 and JAK2 kinase domain was measured by monitoring phosphorylation of a peptide derived from JAK3 (Val-Ala-Leu-Val-Asp-Gly-Tyr-Phe-Arg-Leu-Thr-Thr, fluorescently labeled on the N-terminus with 5-carboxyfluorescein) using the Caliper LabChip® technology (Caliper Life Sciences, Hopkinton, Mass.). […] Reactions were incubated at 22 °C in 384-well polypropylene microtiter plates for 30 minutes and then stopped by addition of 25 μL of an EDTA containing solution (100 mM HEPES buffer (pH 7.2), 0.015% Brij-35, 150 mM EDTA), resulting in a final EDTA concentration of 50 mM. After termination of the kinase reaction, the proportion of phosphorylated product was determined as a fraction of total peptide substrate using the Caliper LabChip® 3000 according to the manufacturer's specifications. Ki values were then determined using the Morrison tight binding model (Morrison, J. F., Biochim. Biophys. Acta. 185:269-296 (1969); William, J. W. and Morrison, J. F., Meth. Enzymol., 63:437-467 (1979)) modified for ATP-competitive inhibition [Ki=Ki,app/(1+[ATP]/Km,app)].

The target of assay [2] is T2, isolated recombinant JAK2 kinase domain (Homo sapiens, UniProt O60674).
T2 construct: isolated recombinant JAK1 and JAK2 kinase domain
Briefly: JAK enzyme assay, JAK2 kinase domain (Caliper LabChip). Format: biochemical. As to conditions: 0.2 nM JAK2, ATP 25 μM, Morrison tight binding model. Here is the method:
as §1, §2

Assay [3] concerns JAK1-dependent STAT6 phosphorylation downstream of IL-13 stimulation in BEAS-2B cells. The assay is described as follows: JAK1 pathway assay in cell lines: IL-13 p-STAT6 BEAS-2B. It is filed as cell-based. Conditions: BEAS-2B human bronchial epithelial cells, 1 hr compound, IL-13 15 min, MSD readout. Here is the method:
JAK1 Pathway Assay in Cell Lines was Carried Out as Follows:
Inhibitor potency (EC50) was determined in cell-based assays designed to measure JAK1 dependent STAT phosphorylation. As noted above, inhibition of IL-4, IL-13, and IL-9 signalling by blocking the Jak/Stat signaling pathway can alleviate asthmatic symptoms in pre-clinical lung inflammation models (Mathew et al., 2001, J Exp Med 193(9): 1087-1096; Kudlacz et. al., 2008, Eur J. Pharmacol 582(1-3): 154-161).
In one assay approach, TF-1 human erythroleukemia cells obtained from the American Type Culture Collection (ATCC; Manassas, Va.) were used to measure JAK1-dependent STAT6 phosphorylation downstream of IL-13 stimulation. Prior to use in the assays, TF-1 cells were starved of GM-CSF overnight in OptiMEM medium (Life Technologies, Grand Island, N.Y.) supplemented with 0.5% charcoal/dextran stripped fetal bovine serum (FBS), 0.1 mM non-essential amino acids (NEAA), and 1 mM sodium pyruvate. The assays were run in 384-well plates in serum-free OptiMEM medium using 300,000 cells per well. In a second assay approach, BEAS-2B human bronchial epithelial cells obtained from ATCC were plated at 100,000 cells per well of a 96-well plate one day prior to the experiment. The BEAS-2B assay was run in complete growth medium (bronchial epithelial basal medium plus bulletkit; Lonza; Basel, Switzerland).
Test compounds were serially diluted 1:2 in DMSO and then diluted 1:50 in medium just before use. Diluted compounds were added to the cells, for a final DMSO concentration of 0.2%, and incubated for 30 mi (for the TF-1 assay) or 1 hr (for the BEAS-2B assay) at 37 QC. Then, cells were stimulated with human recombinant cytokine at their respective EC90 concentrations, as previously determined for each individual lot. Cells were stimulated with IL-13 (R&D Systems, Minneapolis, Minn.) for 15 min at 37 °C. The TF-1 cell reactions were stopped by the direct addition of 10× lysis buffer (Cell Signaling Technologies, Danvers, Mass.), whereas the BEAS-2B cell incubations were halted by the removal of medium and addition of 1× lysis buffer. The resultant samples were frozen in the plates at −80 °C. Compound mediated inhibition of STAT6 phosphorylation was measured in the cell lysates using MesoScale Discovery (MSD) technology (Gaithersburg, Md.). EC50 values were determined as the concentration of compound required for 50% inhibition of STAT phosphorylation relative to that measured for the DMSO control.

T1 sequence (P23458 875-1153 limits assumed): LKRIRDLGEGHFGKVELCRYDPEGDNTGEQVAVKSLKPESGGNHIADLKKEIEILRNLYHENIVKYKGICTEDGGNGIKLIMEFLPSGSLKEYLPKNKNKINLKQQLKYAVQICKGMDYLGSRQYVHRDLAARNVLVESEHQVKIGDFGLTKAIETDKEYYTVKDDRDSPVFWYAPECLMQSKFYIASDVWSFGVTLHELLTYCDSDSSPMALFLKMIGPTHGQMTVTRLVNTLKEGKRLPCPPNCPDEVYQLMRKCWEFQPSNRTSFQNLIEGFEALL
T2 sequence (O60674 849-1124 limits assumed): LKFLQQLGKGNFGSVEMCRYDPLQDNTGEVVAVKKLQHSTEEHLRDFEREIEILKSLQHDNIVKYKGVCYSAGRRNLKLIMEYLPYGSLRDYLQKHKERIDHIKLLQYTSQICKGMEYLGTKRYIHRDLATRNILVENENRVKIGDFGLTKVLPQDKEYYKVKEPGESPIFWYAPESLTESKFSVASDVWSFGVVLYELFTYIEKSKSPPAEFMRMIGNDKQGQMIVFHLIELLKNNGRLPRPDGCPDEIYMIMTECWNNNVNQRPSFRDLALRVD

In the case of `CCc1cnn(C2(CC#N)CN(c3cccn4nc(Nc5cnn(CC(=O)N6CCN(C7COC7)CC6)c5)nc34)C2)c1` [Example 32, 2-[3-(4-ethylpyrazol-1-yl)-1-[2-[[1-[2-[4-(oxetan-3-yl)piperazin-1-yl]-2-oxo-ethyl]pyrazol-4-yl]amino]-[1,2,4]triazolo[1,5-a]pyridin-8-yl]azetidin-3-yl]acetonitrile;formic acid], the Ki was 0.4 nM in assay [1] and 0.2 nM in assay [2]. Also, it took 19 nM to reach a half-maximal effect in assay [3] (EC50).
As for `CCc1cnn(C2(CC#N)CN(c3cccn4nc(Nc5cnn(CC(=O)N6CCC(NCC(C)(C)C#N)CC6)c5)nc34)C2)c1` [Example 33, 3-[[1-[2-[4-[[8-[3-(cyanomethyl)-3-(4-ethylpyrazol-1-yl)azetidin-1-yl]-[1,2,4]triazolo[1,5-a]pyridin-2-yl]amino]pyrazol-1-yl]acetyl]-4-piperidyl]amino]-2,2-dimethyl-propanenitrile], the Ki in assay [1] worked out at 0.3 nM; in assay [2], 0.2 nM. Besides, in assay [3], the EC50 came to 18 nM.
The matching figures for `CCc1cnn(C2(CC#N)CN(c3cccn4nc(Nc5cnn(CC(=O)N6CCC(N(C)C7COC7)CC6)c5)nc34)C2)c1` [Example 34, 2-[3-(4-ethylpyrazol-1-yl)-1-[2-[[1-[2-[4-[methyl(oxetan-3-yl)amino]-1-piperidyl]-2-oxo-ethyl]pyrazol-4-yl]amino]-[1,2,4]triazolo[1,5-a]pyridin-8-yl]azetidin-3-yl]acetonitrile]: 0.4 nM, 0.3 nM and 15 nM.
The matching figures for `CN1CCN(C(=O)Cn2cc(Nc3nc4c(N5CC(CC#N)(c6cccc(Cl)c6)C5)cccn4n3)cn2)CC1` [Example 35, 2-[3-(3-chlorophenyl)-1-[2-[[1-[2-(4-methylpiperazin-1-yl)-2-oxo-ethyl]pyrazol-4-yl]amino]-[1,2,4]triazolo[1,5-a]pyridin-8-yl]azetidin-3-yl]acetonitrile]: 0.8 nM, 2.8 nM and 39 nM.
The matching figures for `CCc1cnn(C2(CC#N)CN(c3cccn4nc(Nc5ccc(C(=O)N6CCC(N7CCOCC7)CC6)cc5)nc34)C2)c1` [Example 36, 2-[3-(4-ethylpyrazol-1-yl)-1-[2-[4-(4-morpholinopiperidine-1-carbonyl)anilino]-[1,2,4]triazolo[1,5-a]pyridin-8-yl]azetidin-3-yl]acetonitrile]: 0.4 nM, 1.6 nM and 52 nM.
With `CCc1cnn(C2(CC#N)CN(c3cccn4nc(Nc5ccc(C(=O)N6CCN(C7CCOCC7)CC6)cc5)nc34)C2)c1` [Example 37, 2-[3-(4-ethylpyrazol-1-yl)-1-[2-[4-(4-tetrahydropyran-4-ylpiperazine-1-carbonyl)anilino]-[1,2,4]triazolo[1,5-a]pyridin-8-yl]azetidin-3-yl]acetonitrile], the inhibitory constant (Ki) in assay [1] came out at 0.5 nM; in assay [2] it was 2.9 nM. The compound also gave an EC50 in assay [3] of 23 nM.
The corresponding values for `CCc1cnn(C2(CC#N)CN(c3cccn4nc(Nc5ccc(C(=O)N6CCN(C)CC6)cc5)nc34)C2)c1` [Example 38, 2-(3-(4-ethyl-1H-pyrazol-1-yl)-1-(2-((4-(4-methylpiperazine-1-carbonyl)phenyl)amino)-[1,2,4]triazolo[1,5-a]pyridin-8-yl)azetidin-3-yl)acetonitrile] are 0.7 nM, 4.1 nM and 615 nM.
The corresponding values for `CCc1cnn(C2(CC#N)CN(c3cccn4nc(Nc5cnn(CC(=O)N6CCC(CN7CCN(C(=O)OC)CC7)CC6)c5)nc34)C2)c1` [Example 39, methyl4-[[1-[2-[4-[[8-[3-(cyanomethyl)-3-(4-ethylpyrazol-1-yl)azetidin-1-yl]-[1,2,4]triazolo[1,5-a]pyridin-2-yl]amino]pyrazol-1-yl]acetyl]-4-piperidyl]methyl]piperazine-1-carboxylate] are 0.3 nM, 1.6 nM and 24 nM.
The matching figures for `CN1CCN(C(=O)Cn2cc(Nc3nc4c(N5CC(CC#N)(n6cc(CCF)cn6)C5)cccn4n3)cn2)CC1` [Example 40, 2-[3-[4-(2-fluoroethyl)pyrazol-1-yl]-1-[2-[[1-[2-(4-methylpiperazin-1-yl)-2-oxo-ethyl]pyrazol-4-yl]amino]-[1,2,4]triazolo[1,5-a]pyridin-8-yl]azetidin-3-yl]acetonitrile]: 0.3 nM, 0.2 nM and 18 nM.
As to `CCc1cnn(C2(CC#N)CN(c3cccn4nc(Nc5cnn(CC(=O)N6CCN(CC)CC6)c5)nc34)C2)c1` [Example 41], the Ki in assay [1] was found to be 0.5 nM; in assay [2], 1.9 nM. In assay [3], the EC50 was 65 nM.
The matching figures for `CCc1cnn(C2(CC#N)CN(c3cccn4nc(Nc5cnn(CC(=O)N6CCC(CN7CCN(CC(=O)N(C)C)CC7)CC6)c5)nc34)C2)c1` [Example 42, 2-[4-[[1-[2-[4-[[8-[3-(cyanomethyl)-3-(4-ethylpyrazol-1-yl)azetidin-1-yl]-[1,2,4]triazolo[1,5-a]pyridin-2-yl]amino]pyrazol-1-yl]acetyl]-4-piperidyl]methyl]piperazin-1-yl]-N,N-dimethyl-acetamide]: 0.4 nM, 2.2 nM and 42 nM.
For `CN1CCN(C(=O)Cn2cc(Nc3nc4c(N5CC(CC#N)(n6cc(C7CC7)cn6)C5)cccn4n3)cn2)CC1` [Example 43, 2-[3-(4-cyclopropylpyrazol-1-yl)-1-[2-[[1-[2-(4-methylpiperazin-1-yl)-2-oxo-ethyl]pyrazol-4-yl]amino]-[1,2,4]triazolo[1,5-a]pyridin-8-yl]azetidin-3-yl]acetonitrile], the inhibition constant Ki is 0.6 nM in assay [1] and 4 nM in assay [2]. In assay [3], this compound returned an EC50 of 48 nM.
In the case of `CCc1cnn(C2(CC#N)CN(c3cccn4nc(Nc5ccc(C(=O)N6CCN(C7COC7)CC6)cc5)nc34)C2)c1` [Example 44, 2-[3-(4-ethylpyrazol-1-yl)-1-[2-[4-[4-(oxetan-3-yl)piperazine-1-carbonyl]anilino]-[1,2,4]triazolo[1,5-a]pyridin-8-yl]azetidin-3-yl]acetonitrile], the Ki amounted to 2.2 nM in assay [1] and 29.5 nM in assay [2]. This compound also came in with an EC50 in assay [3] of 648 nM.
The matching figures for `CCc1cnn(C2(CC#N)CN(c3cccn4nc(Nc5cnn(CC(=O)N6CCC(N(C)CC7(C#N)CC7)CC6)c5)nc34)C2)c1` [Example 45, 1-[[[1-[2-[4-[[8-[3-(cyanomethyl)-3-(4-ethylpyrazol-1-yl)azetidin-1-yl]-[1,2,4]triazolo[1,5-a]pyridin-2-yl]amino]pyrazol-1-yl]acetyl]-4-piperidyl]-methyl-amino]methyl]cyclopropane carbonitrile]: 0.3 nM, 0.8 nM and 21 nM.
The corresponding values for `CCc1cnn(C2(CC#N)CN(c3cccn4nc(Nc5cnn(CC(=O)N6CCN(CCOC)CC6)c5)nc34)C2)c1` [Example 46, 2-[3-(4-ethylpyrazol-1-yl)-1-[2-[[1-[2-[4-(2-methoxyethyl)piperazin-1-yl]-2-oxo-ethyl]pyrazol-4-yl]amino]-[1,2,4]triazolo[1,5-a]pyridin-8-yl]azetidin-3-yl]acetonitrile] are 0.2 nM, 0.2 nM and 7 nM.
